The text below walks through data of ChEMBL document CHEMBL1157827, “The synthesis and biological evaluation of quinolyl-piperazinyl piperidines as potent serotonin 5-HT1A antagonists” (J Med Chem, 2010).

Calls of active or inactive are those of the source. Where only a bound is given, the exact number is not on record here.

Data set [1] is described as follows: in vitro. To be noted: rat, liver microsomes. Background: Liver microsomes are vesicles of endoplasmic reticulum, rich in cytochrome P450 enzymes.
Description: Half life in rat liver microsomes at 1 uM after 20 mins
The nature of data set [2]: in vitro. To be noted: human, liver microsomes.
Description: Half life in human liver microsomes at 1 uM after 20 mins
Data set [3] addresses T1, 5-hydroxytryptamine receptor 1A (Homo sapiens, UniProt P08908).
T1 sequence (P08908 whole entry): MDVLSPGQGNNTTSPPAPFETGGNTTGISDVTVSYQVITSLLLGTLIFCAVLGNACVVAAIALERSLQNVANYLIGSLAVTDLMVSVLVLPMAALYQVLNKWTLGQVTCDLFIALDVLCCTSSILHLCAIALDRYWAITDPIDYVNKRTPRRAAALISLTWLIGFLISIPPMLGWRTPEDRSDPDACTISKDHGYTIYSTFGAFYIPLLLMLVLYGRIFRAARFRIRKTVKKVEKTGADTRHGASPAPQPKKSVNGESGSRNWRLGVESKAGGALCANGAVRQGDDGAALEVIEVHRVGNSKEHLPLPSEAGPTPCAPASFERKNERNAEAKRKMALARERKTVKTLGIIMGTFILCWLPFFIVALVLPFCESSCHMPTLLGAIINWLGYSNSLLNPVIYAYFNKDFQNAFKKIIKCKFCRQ

Data set [4] concerns the target T1, 5-hydroxytryptamine receptor 1A. Kind of data set: biochemical.
Description: Displacement of [3H]8-OH-DPAT from human 5HT1A receptor expressed in CHO cells
Data set [5] relates to Rattus norvegicus. Kind of data set: Effect on serotonin release in Sprague-Dawley rat cortex at 10 mg/kg, po after 40 mins microdialysis assay. In kind it is functional, organism-based. On the set-up: dose 10 mg/kg.
Data set [6] can be described thus: Half life in Sprague-Dawley rat at 3 mg/kg, po administered as single dose by LC/MS/MS analysis. As to conditions: in vivo. On the set-up: dose 3 mg/kg, route oral. In kind it is ADME, organism-based.
In data set [7] the test system is Rattus norvegicus. Kind of data set: Inhibition of 8-OH-DPAT-induced decrease in extracellular serotonin level Sprague-Dawley rat cortex at 10 mg/kg, po administered 30 mins before 8-OH-DPAT challenge. Details: dose 10 mg/kg. In kind it is functional, organism-based.
Data set [8] can be described thus: Clearance in Sprague-Dawley rat at 1 mg/kg, iv administered as single dose by LC/MS/MS analysis. In kind it is ADME, organism-based. Details: dose 1 mg/kg, route intravenous. As to conditions: in vivo.
The nature of data set [9]: Oral bioavailability in Sprague-Dawley rat at 3 mg/kg administered as single dose by LC/MS/MS analysis. It is filed as ADME, organism-based. As to conditions: Sprague-Dawley, in vivo.
The nature of data set [10]: AUC in Sprague-Dawley rat at 3 mg/kg, po administered as single dose by LC/MS/MS analysis. It is filed as ADME, organism-based, Plasma. Details: dose 3 mg/kg, route oral. As to conditions: Sprague-Dawley, plasma.
Data set [11] in a line: Tmax in Sprague-Dawley rat at 3 mg/kg, po administered as single dose by LC/MS/MS analysis. It is filed as ADME, organism-based. Details: dose 3 mg/kg, route oral. As to conditions: in vivo.
Data set [12] in a line: Cmax in Sprague-Dawley rat at 3 mg/kg, po administered as single dose by LC/MS/MS analysis. In kind it is ADME, organism-based. On the set-up: dose 3 mg/kg, route oral. To be noted: in vivo.
Data set [13] is described as follows: Ratio of drug level in brain to plasma in Sprague-Dawley rat at 3 mg/kg, po administered as single dose. It is filed as ADME, organism-based. Details: dose 3 mg/kg, route oral. To be noted: read-out: BPR.
A short description of data set [14]: Volume of distribution at steady state in Sprague-Dawley rat at 1 mg/kg, iv administered as single dose by LC/MS/MS analysis. In kind it is ADME, organism-based. Details: dose 1 mg/kg, route intravenous. To be noted: in vivo, read-out: Vdss.
The test system of a further data set is Plasma. Kind of data set: Drug level in Sprague-Dawley rat plasma at 3 mg/kg, po administered as single dose by LC/MS/MS analysis. It is filed as ADME, organism-based. As to conditions: in vivo. On the set-up: dose 3 mg/kg, route oral.

As usually defined, the half-life is the time needed for the level to fall by half in the phase considered. Higher therefore signals slow loss. As a reminder, the IC50 is the point on the concentration scale where inhibition reaches its midpoint. In general, Ki refers to the dissociation constant of the complex between target and ligand, obtained from inhibition or displacement. Turning to `COc1cc(N2CCN(C3CCN(c4cccc5c(OC)cc(C(F)(F)F)nc45)CC3)CC2)c2ncccc2c1`, the half-life at 20 min, 1 µM stood at 4 min in the data set “in vitro [1]” and 13 min in “in vitro [2]”. In addition, 30 nM corresponded to half-maximal inhibition in [3] (IC50). The Ki in data set [4] came to 2.1 nM.

With `COc1cc(N2CCN(C3CCN(c4cc(F)cc5cccnc45)CC3)CC2)c2ncccc2c1`, the half-life at 20 min, 1 µM came to 2 min in the data set “in vitro [1]” and 4 min in “in vitro [2]”. The compound also returned an IC50 in data set [3] of 46.5 nM. The affinity in data set [4], expressed as Ki, was 3.4 nM.

`COc1cc(N2CCN(C3CCN(c4cccc5c(C)cc(C)nc45)CC3)CC2)c2ncccc2c1`: the results for the half-life at 20 min, 1 µM in the data set “in vitro [1]” and in “in vitro [2]” were 4 min and below 1 min, respectively. Further, the IC50 in data set [3] worked out at 4.8 nM. Affinity in [4] was put at a Ki of 0.63 nM.

In the case of `COc1cc(N2CCN(C3CCN(c4ccc(F)c5cc(F)cnc45)CC3)CC2)c2ncccc2c1`, the results for the half-life at 20 min, 1 µM in “in vitro [1]” and in “in vitro [2]” were below 1 min and 5 min, respectively. In addition, in data set [3], the IC50 was determined as 20 nM. The compound also showed a Ki in [4] of 0.47 nM.

In general, clearance refers to a measure of how efficiently the substance is removed, as volume per time. Low values mean a low capacity for elimination, high ones a high capacity for elimination. By bioavailability is commonly meant dose-corrected exposure relative to a reference, in per cent. A low value points to poor availability. For orientation: AUC means the area under the concentration-time curve, a measure of exposure. A high value points to more exposure. As a reminder, the Tmax is the time at which the peak concentration occurs. Usually Cmax stands for the peak of the concentration-time curve. In the case of `COc1cc(N2CCN(C3CCN(c4ccc(F)c5c(OC)cc(C(F)(F)F)nc45)CC3)CC2)c2ncccc2c1`, in the data set on Rattus norvegicus [5], the result was inactive. Further, the half-life at 20 min, 1 µM in “in vitro [1]” came to 12 min; in “in vitro [2]”, 15 min. The compound also gave a half-life in data set [6] of 288 min. For the same compound, in the data set with Rattus norvegicus [7], the result was Active. Besides, in data set [8], the clearance is 9 mL/min/kg. For the same compound, in data set [9], the bioavailability is 60%. In data set [10], the AUC stood at 3760 ng·h/mL. Also, the Tmax in data set [11] turned out to be 120 min. Moreover, the peak level in data set [12] (Cmax) was 417 ng/mL. In data set [13], the Kp turned out to be 0.2. Also, the Vd in data set [14] was 2.5 L/kg.

As for `COc1cc(N2CCN(C3CCN(c4cccc5cc(C)cnc45)CC3)CC2)c2ncccc2c1`, the half-life at 20 min, 1 µM in the data set “in vitro [1]” and in the data set “in vitro [2]” was 2 min in each case. Further, half-maximal inhibition in data set [3] (IC50) was put at 5.9 nM. Further, in [4], affinity was put at a Ki of 0.46 nM.

As for `COc1cc(N2CCN(C3CCN(c4c(F)ccc5cccnc45)CC3)CC2)c2ncccc2c1`, the half-life at 20 min, 1 µM in the data set “in vitro [1]” and in the data set “in vitro [2]” was 3 min throughout. The compound also showed an IC50 in data set [3] of 331 nM. The compound also yielded a Ki in [4] of 276 nM.

Consider `COc1cc(N2CCN(C3CCN(c4ccc(F)c5cc(C(F)(F)F)cnc45)CC3)CC2)c2ncccc2c1`, for which the half-life at 20 min, 1 µM was found to be 9 min in “in vitro [1]” and 27 min in the data set “in vitro [2]”. In data set [3], this compound had an IC50 of 15 nM. The compound also showed a Ki in data set [4] of 0.87 nM.

In the case of `COc1cc(N2CCN(C3CCN(c4cccc5ccc(C(F)(F)F)nc45)CC3)CC2)c2ncccc2c1`, the half-life at 20 min, 1 µM in the data set “in vitro [1]” was 2 min; in the data set “in vitro [2]”, 3 min. In [3], this compound had an IC50 of 23 nM. Moreover, the affinity in data set [4], expressed as Ki, was 1.8 nM.

On to `COc1cc(N2CCN(C3CCN(c4cccc5cc(C(F)(F)F)cnc45)CC3)CC2)c2ncccc2c1`, for which the half-life at 20 min, 1 µM in “in vitro [1]” was 4 min; in “in vitro [2]”, 10 min. Moreover, in [3], half-maximal inhibition (IC50) required 30 nM.

On to `COc1cc(N2CCN(C3CCN(c4cccc5c(C)ccnc45)CC3)CC2)c2ncccc2c1`, for which the half-life at 20 min, 1 µM in the data set “in vitro [1]” and in “in vitro [2]” was 2 min throughout. Also, in data set [3], 1.4 nM corresponded to half-maximal inhibition (IC50). This compound also returned a Ki in data set [4] of 0.61 nM.

Turning to `COc1cc(N2CCN(C3CCN(c4cc(Br)cc5cccnc45)CC3)CC2)c2ncccc2c1`, the half-life at 20 min, 1 µM in “in vitro [1]” and in “in vitro [2]” was 2 min in each case. The compound further returned an IC50 in data set [3] of 10 nM. This compound yielded a Ki in data set [4] of 0.61 nM.

`COc1cc(N2CCN(C3CCN(c4cccc5cc(F)cnc45)CC3)CC2)c2ncccc2c1`: the half-life at 20 min, 1 µM in “in vitro [1]” and in the data set “in vitro [2]” was 2 min in each case. For the same compound, the IC50 in [3] was determined as 5.6 nM. Further, in [4], affinity was put at a Ki of 0.79 nM.

For `COc1cc(N2CCN(C3CCN(c4ccc(F)c5c(C)cc(C)nc45)CC3)CC2)c2ncccc2c1`, the half-life at 20 min, 1 µM in “in vitro [1]” and in the data set “in vitro [2]” was 3 min each time. The compound further returned an IC50 in data set [3] of 2.8 nM. The compound also returned an inhibitory constant (Ki) in data set [4] of 177 nM.

Turning to `COc1cc(N2CCN(C3CCN(c4ccc(F)c5ccc(C(F)(F)F)nc45)CC3)CC2)c2ncccc2c1`, the half-life at 20 min, 1 µM in the data set “in vitro [1]” and in “in vitro [2]” was 3 min each time. This compound yielded an IC50 in [3] of 7 nM. Moreover, the Ki in data set [4] turned out to be 3.6 nM.

As for `COc1cc(N2CCN(C3CCN(c4cccc5ccc(C)nc45)CC3)CC2)c2ncccc2c1`, the results for the half-life at 20 min, 1 µM in “in vitro [1]” and in the data set “in vitro [2]” were below 1 min and 3 min, respectively. Also, 47 nM corresponded to half-maximal inhibition in [3] (IC50). In data set [4], this compound showed a Ki of 0.54 nM.

As to `COc1cc(N2CCN(C3CCN(c4cccc5cccnc45)CC3)CC2)c2ncccc2c1`, the figures for the half-life at 20 min, 1 µM in the data set “in vitro [1]” and in the data set “in vitro [2]” were 2 min and 3 min, respectively. For the same compound, the half-life in data set [6] was 72 min. Further, in the data set on Plasma, the concentration was determined as 200 nM. In data set [8], this compound came in with a clearance of 38.7 mL/min/kg. The same compound gave a bioavailability in data set [9] of 27%. Moreover, in [10], the AUC amounted to 360 ng·h/mL. Also, the Tmax in data set [11] came out at 60 min. The compound further displayed a Cmax in [12] of 130 ng/mL. In addition, the Kp in data set [13] was 2.8. For the same compound, the Vd in data set [14] was 2.8 L/kg.
